# Data from patent US20240270801A1, “EPITOPE PEPTIDE OF HUMAN ALPHA-SYNUCLEIN AND PHARMACEUTICAL COMPOSITION INCLUDING SAID PEPTIDE” (Sumitomo Pharma Co., Ltd., priority 2021, published 2024).
# No end group written: not given here. KLH = keyhole limpet hemocyanin
# Assays:
# human αSyn = test: Antibody-inducing ability in mice: ELISA antibody titer of immune serum with respect to human αSyn; type: in vivo, mouse
# In short: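 Female balb/c mice, 6 weeks old, immunized i.m. twice 2 weeks apart with peptide conjugates (250 μg/mouse; KLH-DMPVDPDN 25 μg/mouse) plus Alum 50 μg/mouse. Serum taken 2 weeks after second dose. IgG titer measured by ELISA on human αSyn (0.2 μg/well) or aggregated αSyn (15 ng/well), A450; titers expressed as log relative to control conjugate.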
# aggregated human αSyn = aggregated human αSyn (Homo sapiens, UniProt P37840); test: Aggregated human αSyn-neutralizing effect of antibody induced in mice: phosphorylation of human αSyn in SH-SY5Y cells; type: cell-based; design: purchased Stress Marq (StressMarq Biosciences Inc.); settings: antibody (100 μg/mL) induced in C57BL/6 mice by the vaccine; FIG. 1B, isotype control = 100
# Description: The aggregated human αSyn-neutralizing effect of the antibody induced in the mice by the AJ-human αSyn peptide conjugate (AJ-p54) produced in Example 1 was evaluated. Physiological saline or the AJ-human αSyn peptide conjugate (250 μg/mouse) was intramuscularly administered to C57BL/6 mice (males, 6 weeks old, CLEA Japan, Inc.) four times at a 2-week interval using CFA (DIFCO) as an adjuvant. Furthermore, KLH-DMPVDPDN (25 μg/mouse) was administered using Alum (InvivoGen, 50 μg/mouse) as an adjuvant. Two weeks after the fourth administration, serum was recovered. After recovering the antibodies comprised in the serum by Protein G HP SpinTrap (Cytiva), the human αSyn- and aggregated human αSyn-neutralizing effect was evaluated by a method described below.
# As the human αSyn- and aggregated human αSyn-neutralizing effect, the influence on phosphorylation of human αSyn in SH-SY5Y cells (ATCC) was evaluated. The SH-SY5Y cells were seeded in a 96-well plate at 2×10^4 cells/well and cultured under the conditions of 37° C. and 5% CO2. […] After fixing the cells with a 4% paraformaldehyde/phosphate buffer solution (FUJIFILM Wako Pure Chemical Corporation), phosphorylated human αSyn was stained with a fluorescence-labeled anti-phosphorylated αSyn antibody (Cell Signaling). The amount of phosphorylated human αSyn was evaluated by image analysis using ArrayScan (Thermo Fisher Scientific Inc.). […]
substance,measurement,setting,value
"KLH-C-DMPVDPDN ({KLH}-CDMPVDPDN) [KLH-DMPVDPDN, comparison vaccine, reference compound]",Induction of the antibody to human αSyn in the mouse serum (in words),"human αSyn; Example 2, balb/c mice",induction of the antibody to human αSyn was also confirmed
same,"Antibody titer with respect to human αSyn (N = 4 − 6, mean ± standard deviation)","human αSyn; Example 2, balb/c mice, i.m. twice at 2-week interval, Alum, AJ conjugates 250 μg/mouse, KLH-DMPVDPDN 25 μg/mouse, serum 2 weeks after second administration",5461 ± 2365
same,Induction of the antibody to human αSyn (in words),"human αSyn; Example 4, balb/c mice",induced the antibody to human αSyn
same,Antibody titer with respect to human αSyn (mean ± standard deviation),"human αSyn; Example 4, balb/c mice, i.m. twice at 2-week interval, Alum, AJ conjugates 250 μg/mouse, KLH-DMPVDPDN 25 μg/mouse",1792 ± 1536
same,Phosphorylation of human αSyn in SH-SY5Y cells to which aggregated human αSyn was added,aggregated human αSyn,inhibited
